Biological target: T1, aldose reductase (Rattus norvegicus, UniProt P07943)
T1 construct: their crystalline lenses were immediately removed and stored at -80° C; The lenses were homogenized; from tissue; host or cells: crystalline lens of six-week-old male SD rats (homogenate supernatant, dialysed)
Assay: Aldose Reductase Inhibition Test (Experiment 1)
Assay type: biochemical, rat (male SD rat crystalline lens)
Settings: DL-glycerine aldehyde 10 mM, pH 6.2, 30° C., 5 min; for inhibition at 50 µM: final concentration 5×10^-5 M (values without asterisk); for inhibition at 1 µM: *Concentration of 10^-6 M
Description: Six-week-old male SD rats were killed under ether anesthesia and their crystalline lenses were immediately removed and stored at -80° C. The lenses were homogenized in 3 volumes of 135 mM sodium potassium phosphate buffer (pH: 7.0) and centrifuged at a rate of 30,000 rpm for 30 min. The supernatant was dialyzed overnight against 0.05M sodium chloride, to produce an aldose reductase solution. All operations were conducted at 4° C. The enzyme solution was stored at -80° C.
The activity of aldose reductase was determined according to a slight modification of the method of J. H. Kinoshita et al [J. Biol. Chem., 240, 877 (1965)]. Namely, 0.1 ml of DL-glycerine aldehyde (final concentration: 10 mM) was added to 0.9 ml of 100 mM sodium potassium phosphate buffer (pH 6.2) which contained lithium sulfate (final concentration: 400 mM), reduced nicotinamide adenine dinucleotide phosphate (final concentration: 0.15 mM), the enzyme solution, and the compound to be tested (final concentration: 5×10^-5 M or 10^-6 M), and then the reaction was conducted at 30° C. for 5 min. […] The maximum reducing rate of the absorbance (U) during the reaction was determined. By substracting, from this value, the maximum reducing rate (Uo) at 340 nm of the reaction solution before the addition of the substrate (DL-glycerine aldehyde), the reaction rate (V) (V=U-Uo) was calculated as a true reaction rate in the presence of the compound to be tested.
The same procedure was repeated except for the absence of the compound to be tested. A true reaction rate (Vo) in case the enzyme was not inhibited was calculated (Vo =U'-Uo '). The inhibitory activity of aldose reductase was determined by the following formula. [formula]

| inhibition at 50 µM [%] | inhibition at 1 µM [%] | SMILES |
| --- | --- | --- |
| 52 |  | CCCCOC(=O)C(=O)Nc1cccc(-c2nnnn2CC(=O)OCC)c1 [Compound 2-8, Butyl 3'-(1-ethoxycarbonylmethyl-tetrazol-5-yl)oxanilate] |
| 80 |  | O=C(O)CCn1nnnc1-c1ccccc1 [Compound 3-15, 3-(5-Phenyltetrazol-1-yl)propionic acid] |
| 58 |  | CCCCOC(=O)C(=O)Nc1cccc(-c2nnn[nH]2)c1 [Compound 4-1, 5-(3-n-Butyloxalylaminophenyl)tetrazole] |
| 36 |  | COC(=O)Cn1nnnc1-c1ccc(-c2nnnn2CC(=O)OC)cc1 [Compound 2-10, 1,4-Bis(1-methoxycarbonylmethyl-tetrazol-5-yl)benzene] |
| 63 |  | O=C(O)C(=O)Nc1cccc(-c2nnn[nH]2)c1 [Compound 5-1, 3-(1H-Tetrazol-5-yl)oxanilic acid] |
| 63 |  | CCCCOC(=O)Cn1nnnc1-c1ccccc1 [Compound 1-4, n-Butyl 5-phenyl-1-tetrazoleacetate] |
| 43 |  | COC(=O)Cn1nnnc1-c1ccc(OC)cc1 [Compound 1-8, Methyl 5-(4-methoxyphenyl)-1-tetrazoleacetate] |
| 95 |  | CCOC(=O)C(=O)Nc1cc(-c2nnn[nH]2)cc(NC(=O)C(=O)OCC)c1Cl [Compound 4-3, 5-(4-Chloro-3,5-diethyloxalylaminophenyl)tetrazole] |
|  | 85 | O=C(O)Cn1nnnc1-c1ccc(Cl)cc1 [Compound 3-10, 5-(4-Chlorophenyl)-1-tetrazoleacetic acid] |
|  | 84 | O=C(O)Cn1nnnc1-c1ccc(Cl)c([N+](=O)[O-])c1 [Compound 3-2, 5-(3-Nitro-4-chlorophenyl)-1-tetrazoleacetic acid] |
| 68 |  | O=C(O)CCCCn1nnnc1-c1ccccc1 [Compound 3-17, 5-(5-Phenyltetrazol-1-yl)valeric acid] |
| 92 |  | COC(=O)Cn1nnnc1-c1ccccc1 [Compound 1-1, methyl 5-phenyl-1-tetrazoleacetate] |
| 44 |  | COC(=O)Cn1nnnc1-c1cccc(C)c1 [Compound 1-6, Methyl 5-(3-methylphenyl)-1-tetrazoleacetate] |
| 79 |  | O=C(O)CCCn1nnnc1-c1ccccc1 [Compound 3-16, 4-(5-Phenyltetrazol-1-yl)buatyric acid] |
| 44 |  | COC(=O)Cn1nnnc1-c1ccc([N+](=O)[O-])cc1 [Compound 2-5, Methyl 5-(4-nitrophenyl)-1-tetrazoleacetate] |
| 42 |  | COC(=O)Cn1nnnc1-c1ccc(Cl)c([N+](=O)[O-])c1 [Compound 2-6, Methyl 5-(3-nitro-4-chlorophenyl)-1-tetrazoleacetate] |
| 91 |  | CC(C(=O)O)n1nnnc1-c1ccccc1 (stereo not drawn) [Compound 3-18, 2-(5-Phenyltetrazol-1-yl)propionic acid] |
| 69 |  | CCCCOC(=O)C(=O)Nc1ccccc1-c1nnn[nH]1 [Compound 4-2, 5-(2-n-Butyloxalylaminophenyl)tetrazole] |
| 30 |  | COC(=O)Cn1nnnc1-c1cccc([N+](=O)[O-])c1 [Compound 2-4, Methyl 5-(3-nitrophenyl)-1-tetrazoleacetate] |
| 92 |  | CCCCOC(=O)C(=O)Nc1cc(-c2nnn[nH]2)cc(NC(=O)C(=O)OCCCC)c1Cl [Compound 4-4, 5-(4-Chloro-3,5-di-n-butyloxalylaminophenyl)tetrazole] |
| 31 |  | COC(=O)Cn1nnnc1-c1ccc(Cl)cc1 [Compound 2-1, Methyl 5-(4-chlorophenyl)-1-tetrazoleacetate] |

— patent USRE35281E, “Tetrazole derivatives and aldose reductase inhibition therewith” (Wakamoto Pharmaceutical Co., Ltd., priority 1989, dated 1996)
